Assays:
heart = system: heart; set-up: species or system mice; conditions: mouse, in vivo
Procedure: Mice were anesthetized with ketamine (87.5 mg/kg) and xylazine (12.5 mg/kg), and a small incision was made in the skin near the spine, approximately 1 cm above the hip. Minipumps containing saline or AngII (3 mg/kg/day) were inserted and the skin was sutured closed. Other mice were given, daily injections of Iso (30 mg/kg/day, intraperitoneal) for 7 days. Animals were then sacrificed and the heart was removed, fixed, and embedded in paraffin. Transverse heart sections of 5 μm thickness were made. To confirm the identity of cardiomyocytes, heart sections were immunolabeled with alpha-actinin Ig (cardiomyocyte-specific marker). Only sections with >90% cardiomyocytes were used in experiments. (See FIG. 13.) Paraffin was removed, and TUNEL staining was performed using In Situ cell death detection kits, TMR Red (Roche). Nuclei were co-stained with DAPI. To determine percent of TUNEL positive nuclei, whole heart sections were divided into four quadrants and one image was taken at random within each quadrant. In the case of sections from post-MI mice, an average of 50% of the heart quadrants were from portions of the heart adjacent to the MI. An investigator blinded to the identity and treatment of the mice counted the number of total and TUNEL positive cells in each image. […]

cardiomyocytes = assay: Intracellular calcium concentration (Fura-2 imaging); format: cell-based, mouse; conditions: compared to Iso, cardiomyocytes from WT and p47−/− mice, 100 nM
Procedure: Intracellular calcium concentration was assessed by Fura-2 fluorescence ratio imaging using a microscopic digital imaging system (Photon Technology International), as described previously (Sharma e.g., 1995). Briefly, cultured primary cardiac myocytes were loaded with the Ca^2+-specific dye Fura-2 by incubating with 1 μM Fura-2AM (Molecular Probes) at 37° C. for 30 minutes. [Ca^2+]t values over the entire cell were calculated from the 340/380-nm ratio images of Fura-2 fluorescence captured before, during and after Iso (100 nM) or AngII (100 nM) stimulation.
In order to validate the connection between AngII and ROS in this experimental model, isolated cardiomyocytes from WT and p47^−/− mice were treated with 100 nM AngII and monitored production of ROS by Imaging DHE, a fluorescent reporter for superoxide and hydrogen peroxide (FIG. 7C). Wild-type cardiomyocytes were incubated with fura-2 AM, a cell-permeant calcium indicator to observe changes in intracellular Ca^2+ ([Ca^2+]i).

oxidized CaMKII = assay: Oxidized / phosphorylated CaMKII in hearts of treated mice (immunostaining, immunoblot); format: in vivo
Procedure: Mice were anesthetized with ketamine (87.5 mg/kg) and xylazine (12.5 mg/kg), and a small incision was made in the skin near the spine, approximately 1 cm above the hip. Minipumps containing saline or AngII (3 mg/kg/day) were inserted and the skin was sutured closed. Other mice were given, daily injections of Iso (30 mg/kg/day, intraperitoneal) for 7 days. Animals were then sacrificed and the heart was removed, fixed, and embedded in paraffin. Transverse heart sections of 5 μm thickness were made. To confirm the identity of cardiomyocytes, heart sections were immunolabeled with alpha-actinin Ig (cardiomyocyte-specific marker). Only sections with >90% cardiomyocytes were used in experiments. (See FIG. 13.) Paraffin was removed, and TUNEL staining was performed using In Situ cell death detection kits, TMR Red (Roche). Nuclei were co-stained with DAPI. To determine percent of TUNEL positive nuclei, whole heart sections were divided into four quadrants and one image was taken at random within each quadrant. In the case of sections from post-MI mice, an average of 50% of the heart quadrants were from portions of the heart adjacent to the MI. An investigator blinded to the identity and treatment of the mice counted the number of total and TUNEL positive cells in each image.
Other sections were treated with either a general CaMKII antibody or oxidized CaMKII antiserum. Nuclei were co-stained with DAPI. Identity of cardiomyocytes was confirmed by co-stain with an antibody against α-actinin. Images were quantified for relative staining intensity using Image J (NIH, USA). Each image was divided into four quadrants, and one rectangular area of equal size and shape was randomly placed within the cytosolic area of each quadrant, excluding DAPI-stained nuclei. Relative intensity of an image was judged to be the mean of the intensity measurements taken in each quadrant. Both the investigators and technical personnel assigned to immunostaining and quantification were blinded to the genetic identity and treatment of the mice in all studies.
To determine the role of CaMKII oxidation In apoptosis, mice were treated with saline, AngII, or isoproterenol (Iso) for one week, and transverse heart, sections from these mice were probed for the production of oxidized CaMKII in vivo. […] Total CaMKII immunoreactivity remained constant regardless of treatment. […] (See FIG. 6).
Homogenized hearts from mice treated with saline, AngII, or Iso, and whole heart lysates were analyzed by immunoblot for oxidized CaMKII.
Methionine oxidation is specifically reversed by MsrA (Weissbach e.g., 2002), so it was hypothesized that MsrA^−/− mice would show enhanced vulnerability to AngII-mediated CaMKII oxidation and apoptosis. In order to test this idea, MsrA^−/− and WT control mice were implanted with AngII or saline elating osmotic mini pumps. […] In order to test if CaMKII oxidation and apoptosis were regulated by NADPH oxidase and MsrA in the setting of myocardial infarction, MsrA^−/−, p47^−/−, and WT mice were subjected to myocardial infarction surgery. […] Myocardial infarction surgery was performed on a larger cohort of MsrA^−/− and WT control mice to determine if increased CaMKII oxidation and apoptosis in MsrA^−/− mice translated into poorer functional outcomes.
To test the specificity of this antiserum, Western blots of isolated CaMKII after no treatment, oxidation with H2O2, or phosphorylation with ATP were performed. CaMKII samples were probed for either total protein using a general CaMKII antibody or for oxidized CaMKII with anti-oxCaMKII antiserum. […] (See FIG. 14A). To test the efficacy of the antiserum in tissue staining, mice were treated with either saline or angiotensin II, an oxidant stimulating agent in cardiac tissue, and stained heart sections and performed immunofluorescent stains for oxidized CaMKII. […] (See FIG. 14B).

In the case of “angiotensin II (DRVYIHPF; Angiotensin-2; UniProt P01019 25-32, looked up) [AngII, oxidant stimulating agent in cardiac tissue]”, the “TUNEL staining of hearts” value (heart) is reported as “increased TUNEL staining”, the “Increases in [Ca2+]i” value (cardiomyocytes) is reported as “significantly less” and the “CaMKII oxidation in hearts” value (oxidized CaMKII; MsrA−/− mice, vs saline MsrA−/− and control hearts) is reported as “significantly more CaMKII oxidation”. The “Oxidized CaMKII in heart sections” value (oxidized CaMKII; WT mice) was “more oxidized CaMKII than those treated with saline or Iso”, the “Staining for T287-phosphorylated CaMKII in heart sections” value (oxidized CaMKII; WT mice, AngII 3 mg/kg/day 1 week) was “increased staining” and the “Oxidized CaMKII in heart sections” value (oxidized CaMKII; WT mice, listed as angiotensin II) was “significant staining relative to the control”. For the same substance, the “Oxidized CaMKII in heart sections” value (oxidized CaMKII; p47−/− mice) was “did not show increased levels of oxidized CaMKII”, the “Staining for T287-phosphorylated CaMKII in heart sections” value (oxidized CaMKII; p47−/− mice) was “unaffected” and the “Oxidized CaMKII in whole heart lysates (immunoblot)” value (oxidized CaMKII; vs saline or Iso) was “significantly increased oxidized CaMKII levels”.

Source: US9090701B2, “Methods of detecting oxidized calcium/calmodulin dependent protein kinase II” (University of Iowa Research Foundation, priority 2008, dated 2015)
